For assay [1], the system named is CFT1 cells. Description: in vitro transfection of CFT1 cells with pCF1-βGal plasmid by cationic liposomes (DC-Chol analogue/DOPE), β-galactosidase expression. The class given is cell-based. To be noted: for rank of DC-Chol analogues for in vitro gene delivery: most effective triamine, tetramine and pentamine; for gene delivery efficiency in vitro over and above DC-Chol/DOPE liposomes: pCF1-βGal plasmid, liposomes with DOPE, relative to DC-Chol/DOPE liposomes formulated in a similar way (FIG. 24). The procedure:
FIG. 23 is an example of in vitro optimisation of pCF1-βGal plasmid transfection of CFT1 cells in vitro using complexes of pCF1-βGal and cationic liposomes formulated from DC-Chol analogue 8f′ and DOPE 2 (1:1) molar ratio. CFT1 cells were transfected with an array of different cationic liposome and plasmid ratios in a 96-well plate. The extent of transfection in each well was determined after 2 days by measuring the levels of β-galactosidase expression. Plasmid DNA concentration is expressed as the concentration of nucleotides assuming an average nucleotide FWt of 330. Cationic liposome concentration is expressed in terms of the concentration of the constituent DC-Chol analogue 8f′ alone.
FIG. 24 presents rank order of DC-Chol polyamine analogues transfecting CFT1 cells in vitro with the pCF1-βGal plasmid. Gene delivery activity is expressed as a proportion of the activity measured with standard liposomes containing DC-Chol 1 and DOPE 2. The data shown are the averages of four separate experiments, each performed in triplicate.
The ratios in curved brackets refer to the DC-Chol analogue:DOPE 2 molar ratio used to formulate the liposomes. The numbers in square brackets refer to compound serial numbers. Where appropiate DC-Chol analogue name abbreviations are also included (see experimental).
(§1) The ability of cationic liposomes containing the different DC-Chol polyamine analogues to mediate gene delivery was analysed both in vitro and in vivo. Cationic liposomes were formulated by hydrating a dried lipid film, containing DC-Cholanalogue and DOPE 2 in an appropriate molar ratio of either 1:0, 1:1, 1:2 or 2:1 respectively. and vortex mixing.^[32] Cationic liposome/plasmid DNA complexes were then prepared by adding appropriately diluted cationic liposome suspensions into equal volumes of aqueous plasmid DNA solutions at 30° C. and allowing the mixture to equilibrate to ambient temperature over 15 min.^[32] In vitro studies were then performed with immortalised cystic fibrosis airway epithelial (CFT1) cells followed by in vivo studies in which cationic liposome/plasmid DNA complexes were instilled intranasally into the lungs of female BALB/c mice.^[32] Typically, cationic liposome gene delivery was first optimised in vitro so as to establish the best molar ratio of cationic liposome to plasmid DNA (DNA concentration was expressed as nucleotide concentration) as well as the best absolute quantities of both, as illustrated (FIG. 23). This optimised combination was then tested in vivo. The in vitro results are shown (FIG. 24). […] The analogues were 8a′, 8b′, 8e′, 8f′, 13a′ and 17b′, the first four being triamines, the fifth a tetramine and the sixth a pentamine. With one exception, 8f′, these polyamine analogues contain inter-nitrogen methylene group spacings not normally associated with the natural polyamines spermidine 18′ (see for example FIG. 29), spermine 19′ (see for example FIG. 29) and pentamine 20′ (see for example FIG. 29) upon which these structures are based. In vivo (FIG. 25), the best DC-Chol analogues were 13c′, 13f′ and especially 17a′. Both 17a′ and 13c′ also contain unnatural methylene group spacings.
For the in vitro and in vivo tests, a dried lipid film containing the given DC-Chol analogue and DOPE 2 (in either a 1:0, 1:1, 1:2 or 2:1 respective molar ratio), was hydrated for 10 min in sterile pyrogen-free water and then liposomes were produced by 2 min vortex mixing. The average diameter was between 200-400 nm.^[32] Cationic liposomes containing DC-Chol 1 and DOPE 2 were formulated in the same way described previously.^[24, 36]
Cationic liposome/plasmid DNA complexes were then prepared as follows.
Both cationic liposome suspensions and DNA (either pCF1-βGal plasmid expressing β-galactosidase or pCF1-CAT expressing chloramphenicol acetyl transferase)^[32] solutions were separately pre-incubated for 5 min at 30° C., before being diluted to the appropriate final concentrations and then combined. […]

Assay [2] deals with lungs of female BALB/c mice. Description: in vivo transfection of mouse lung with pCF1-CAT plasmid by intranasally instilled cationic liposome/DNA complexes, CAT activity in lung homogenates. The conditions noted are these: for rank of DC-Chol analogues for in vivo gene delivery: female BALB/c mice lung, pCF1-CAT plasmid, optimal formulation, CAT activity after 2 days (FIG. 25). The procedure: FIG. 25 presents the rank order of DC-Chol polyamine analogues transfecting the lungs of female BALB/c mice with the pCF1-CAT plasmid. Mice were instilled with a solution of the plasmid (4 mM nucleotide concentration) and the optimal quantity and ratio of cationic liposome, in a total volume of 100 μl. Gene delivery activity was determined as a function of chloramphenicol acetyl transferase activity in lung homogenates after 2 days.
Data points were from separate experiments with each optimal formulation tested in 4 BALB/c mice. The ratios in curved brackets refer to the DC-Chol analogue:DOPE 2 molar ratio. The numbers in square brackets refer to compound serial numbers. Where appropiate DC-Chol analogue name abbreviations are also included (see experimental).
as §1, with “spacings. […]” for “spacings.”

For assay [3] the following is noted: reported; cited from earlier work.
Where [4] appears, read: mouse lung, pCF1-CAT plasmid (FIG. 25).

Regarding `CC(C)CCCC(C)C1CCC2C3CC=C4CC(OC(=O)NCCCNCCCN)CCC4(C)C3CCC12C` (centres unmarked) [8e′, 4-aza-N′-cholesteryloxycarbonyl-1,7-heptanediamine], in assay [1], the “rank of DC-Chol analogues for in vitro gene delivery” value was “most effective”; the “gene delivery efficiency in vitro over and above DC-Chol/DOPE liposomes” value is given as “significant improvements”.
The like results for `CC(C)CCC[C@@H](C)[C@H]1CC[C@H]2[C@@H]3CC=C4C[C@@H](OC(=O)NCCNCCCNCCN)CC[C@]4(C)[C@H]3CC[C@]12C` [13a′, N′-cholesteryloxy-carbonyl-3,7-diaza-1,9-nonanediamine] were, in that order, “most effective” and “significant improvements”.
For `CC(C)CCCC(C)C1CCC2C3CC=C4CC(OC(=O)NCCCNCCCCNCCCN)CCC4(C)C3CCC12C` (centres unmarked) [13f′, N^1-cholesteryloxy-carbonyl-4,9-diaza-1,12-dodecanediamine], the “rank of DC-Chol analogues for in vivo gene delivery” value in assay [2] was “best and most effective”.
For the compound `CCCCCCCCCCCCOCC(C[N+](C)(C)CCCN)OCCCCCCCCCCCC.[Br-]` (centres unmarked) [GAP-DLRIE, (B1)-N-(3-aminopropyl)-N,N-dimethyl-2,3-bis-(dodecyloxy)-1-propanaminium bromide], in assay [3], the “in vivo efficacy relative to plasmid DNA alone” value is on record as “about 100 fold”.
As to “N^10-cholesteryloxycarbonyl-4,8,13-triaza-1,16-hexadecanediamine [17b′]”, in assay [1], the “rank of DC-Chol analogues for in vitro gene delivery” value is “most effective”; the “gene delivery efficiency in vitro over and above DC-Chol/DOPE liposomes” value is listed as “significant improvements”.
Regarding “N^15-cholesteryloxycarbonyl-3,7,12-triaza-1,15-pentadecanediamine [17a′]”, the “rank of DC-Chol analogues for in vivo gene delivery” value in assay [2] is “best and most effective”. For the same compound, in assay [2] (setting [4]), the “effectiveness in mouse lung relative to DC-Chol 1” value is “about 100 fold” and the “effectiveness in mouse lung relative to plasmid DNA alone” value is “approx 500 fold”.

These data come from patent US6756054B1, “Polycationic sterol derivatives as transfection agents” (IC-VEC Limited, priority 1996, dated 2004).
